Assay results: patent publication US20240391862A1, “(1,4,5-TRISUBSTITUTED-1H-PYRAZOL-3-YL)OXY-2-ALKOXY ALKYL ACIDS AND THEIR DERIVATIVES, THEIR SALTS AND THEIR USE AS HERBICIDAL AGENTS” (Bayer AKtiengesellschaft, priority 2021, published 2024)

Tests used:
ECHCG [1] = assay: Pre-emergence herbicidal effect, greenhouse pot test; format: in vivo, Echinochloa crus-galli; settings: scored visually after about 3 weeks vs untreated controls; for pest or weed control at 320 g/ha: Echinochloa crus-galli, 504 h, read-out: Pre-emergence effect at 320 g/ha against ECHCG in %
Excerpt: (§1) Seeds of monocotyledonous and dicotyledonous weed plants and crop plants are placed in plastic or organic planting pots and covered with soil. The compounds of the invention, formulated in the form of wettable powders (WP) or as emulsion concentrates (EC), are then applied to the surface of the covering soil as aqueous suspension or emulsion with addition of 0.5% additive at a water application rate equivalent to 600 l/ha. After the treatment, the pots are placed in a greenhouse and kept under good growth conditions for the trial plants. After about 3 weeks, the effect of the preparations is scored visually in comparison with untreated controls as percentages. For example, 100% activity=the plants have died, 0% activity=like control plants.
(§2) Tables 1a to 19c below show the effects/crop compatibilities of selected compounds of the general formula (I) on various harmful plants at an application rate corresponding to 20 to 320 g/ha, which were obtained by the trial procedure specified above.
(§3) • ALOMY: Alopecurus myosuroides SETVI: Setaria viridis • AVEFA: Avena fatua POLCO: Fallopia convolvulus • AMARE: Amaranthus retroflexus ECHCG: Echinochloa crus-galli • LOLRJ: Lolium rigidum STEME: Stellaria media • VERPE: Veronica persica MATIN: Tripleurospermum inodorum • DIGSA: Digitaria sanguinalis ABUTH: Abutylon threophrasti • TRZAS: Triticum aestivum VIOTR: Viola tricolor • BRSNW: Brassica napus ZEAMX: Zea mays • PHBPU: Ipomoea purpurea GLXMA: Glycine max • ORYSA: Oryza sativa HORMU: Hordeum murinum

ZEAMX = assay: Pre-emergence herbicidal effect and crop plant compatibility, greenhouse pot test; format: in vivo, Zea mays; settings: 80 g/ha, scored visually after about 3 weeks vs untreated controls
In short: (§4)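 Pre-em soil-surface spray, WP/EC formulations in water + 0.5% additive, 600 l/ha, 20–320 g/ha; pots held in greenhouse ~3 wk; % activity scored visually vs untreated (0% = control, 100% = dead).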

AMARE [2] = assay: Pre-emergence herbicidal effect, greenhouse pot test; format: in vivo, Amaranthus retroflexus; settings: scored visually after about 3 weeks vs untreated controls; for pest or weed control at 320 g/ha: Amaranthus retroflexus, 504 h, read-out: Pre-emergence effect at 320 g/ha against AMARE in %
In short: as §4

POLCO [3] = assay: Post-emergence herbicidal effect, greenhouse pot test; format: in vivo, Fallopia convolvulus; settings: Fallopia convolvulus, 504 h, read-out: Post-emergence effect against POLCO in %
In short: (§5)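 Sandy loam pots, greenhouse. One-leaf stage (2–3 wk after sowing) foliar spray; WP/EC in water + 0.5% additive, 600 l/ha; 20–320 g/ha. Visual score ~3 wk, 0–100% vs untreated.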

POLCO [4] = assay: Pre-emergence herbicidal effect, greenhouse pot test; format: in vivo, Fallopia convolvulus; settings: scored visually after about 3 weeks vs untreated controls; for pest or weed control at 320 g/ha: Fallopia convolvulus, 504 h, read-out: Pre-emergence effect at 320 g/ha against POLCO in %
Excerpt: as §1, §2, §3

LOLRI [5] = assay: as above; format: in vivo, Lolium rigidum; settings: scored visually after about 3 weeks vs untreated controls
Excerpt: as §1, §2, §3

AVEFA = assay: Post-emergence herbicidal effect, greenhouse pot test; format: in vivo, Avena fatua; settings: Avena fatua, 504 h, visual rating about 3 weeks after treatment, read-out: Post-emergence effect against AVEFA
In short: as §5

MATIN [6] = assay: Pre-emergence herbicidal effect, greenhouse pot test; format: in vivo, Tripleurospermum inodorum; settings: scored visually after about 3 weeks vs untreated controls; for pest or weed control at 320 g/ha: Tripleurospermum inodorum, 504 h, read-out: Pre-emergence effect at 320 g/ha against MATIN in %
Excerpt: as §1, §2, §3

ALOMY [7] = assay: as above; format: in vivo, Alopecurus myosuroides; settings: scored visually after about 3 weeks vs untreated controls
Excerpt: as §1, §2, §3

VERPE = assay: Post-emergence herbicidal effect, greenhouse pot test; format: in vivo, Veronica persica; settings: Veronica persica, 504 h, read-out: Post-emergence effect against VERPE in %
In short: as §5

ECHCG [8] = assay: as above; format: in vivo, Echinochloa crus-galli; settings: Echinochloa crus-galli, 504 h, read-out: Post-emergence effect against ECHCG in %
In short: as §5

VIOTR = assay: as above; format: in vivo, Viola tricolor; settings: Viola tricolor, 504 h, read-out: Post-emergence effect against VIOTR in %
In short: as §5

PHBPU = assay: as above; format: in vivo, Ipomoea purpurea; settings: Ipomoea purpurea, 504 h, read-out: Post-emergence effect against PHBPU in %
In short: as §5

SETVI [9] = assay: Pre-emergence herbicidal effect, greenhouse pot test; format: in vivo, Setaria viridis; settings: scored visually after about 3 weeks vs untreated controls; for pest or weed control at 320 g/ha: Setaria viridis, 504 h, read-out: Pre-emergence effect at 320 g/ha against SETVI in %
In short: as §4

SETVI [10] = assay: Post-emergence herbicidal effect, greenhouse pot test; format: in vivo, Setaria viridis; settings: Setaria viridis, 504 h, read-out: Post-emergence effect against SETVI in %
In short: as §5

LOLRI [11] = assay: as above; format: in vivo, Lolium rigidum; settings: Lolium rigidum, 504 h, read-out: Post-emergence effect against LOLRI in %
In short: as §5

AMARE [12] = assay: as above; format: in vivo, Amaranthus retroflexus; settings: Amaranthus retroflexus, 504 h, visual rating about 3 weeks after treatment, read-out: Post-emergence effect against AMARE
In short: as §5

ALOMY [13] = assay: as above; format: in vivo, Alopecurus myosuroides; settings: Alopecurus myosuroides, 504 h, visual rating about 3 weeks after treatment, read-out: Post-emergence effect against ALOMY
In short: as §5

MATIN [14] = assay: as above; format: in vivo, Tripleurospermum inodorum; settings: Tripleurospermum inodorum, 504 h, read-out: Post-emergence effect against MATIN in %
In short: as §5

GLXMA = assay: Pre-emergence herbicidal effect and crop plant compatibility, greenhouse pot test; format: in vivo, Glycine max; settings: 80 g/ha, scored visually after about 3 weeks vs untreated controls
Excerpt: as §1, §2, §3

Row | Compound | pest or weed control at 320 g/ha (ECHCG [1]) [%] | Pre-emergence effect at 80 g/ha against ZEAMX in % (ZEAMX) [%] | pest or weed control at 320 g/ha (AMARE [2]) [%] | pest or weed control at 320 g/ha (POLCO [4]) [%] | Pre-emergence effect at 320 g/ha against LOLRI in % (LOLRI [5]) [%] | pest or weed control at 320 g/ha (AVEFA) [%] | pest or weed control at 320 g/ha (MATIN [6]) [%] | Pre-emergence effect at 320 g/ha against ALOMY in % (ALOMY [7]) [%] | pest or weed control at 320 g/ha (VERPE) [%] | pest or weed control at 320 g/ha (ECHCG [8]) [%] | pest or weed control at 320 g/ha (VIOTR) [%] | pest or weed control at 320 g/ha (PHBPU) [%] | pest or weed control at 320 g/ha (SETVI [9]) [%] | pest or weed control at 80 g/ha (SETVI [10]) [%] | pest or weed control at 320 g/ha (SETVI [10]) [%] | pest or weed control at 320 g/ha (LOLRI [11]) [%] | pest or weed control at 320 g/ha (AMARE [12]) [%] | pest or weed control at 80 g/ha (ALOMY [13]) [%] | pest or weed control at 320 g/ha (ALOMY [13]) [%] | pest or weed control at 320 g/ha (MATIN [14]) [%] | further results
1 | CCOC(=O)C(OCC)Oc1nn(-c2ccccc2F)c(-c2ccc(F)nc2)c1Br (racemic) [Example I-01, Ethyl (2RS)-{[4-bromo-1-(2-fluorophenyl)-5-(6-fluoropyridin-3-yl)-1H-pyrazol-3-yl]oxy}(ethoxy)acetate] | 100 | 0 | 100 | 90 | 100 | 90 | 90 | 90 | 90 | 90 | 90 | 90 | 100 | 90 | 90 | 90 | 90 | 90 | 100 | 90 | Pre-emergence effect at 80 g/ha against AMARE in % (AMARE [2]): 80%; pest or weed control at 80 g/ha (POLCO [3]; 80 g/ha): 80%; pest or weed control at 320 g/ha (POLCO [3]): 80%; Pre-emergence effect at 80 g/ha against POLCO in % (POLCO [4]): 80%; Pre-emergence effect at 80 g/ha against LOLRI in % (LOLRI [5]; 80 g/ha): 90%; Pre-emergence effect at 80 g/ha against MATIN in % (MATIN [6]; 80 g/ha): 90%; pest or weed control at 80 g/ha (VERPE): 80%; pest or weed control at 80 g/ha (ECHCG [8]): 90%; pest or weed control at 80 g/ha (VIOTR): 80%; pest or weed control at 80 g/ha (PHBPU): 90%; pest or weed control at 80 g/ha (AMARE [12]; 80 g/ha): 80%; pest or weed control at 80 g/ha (MATIN [14]): 80%; Pre-emergence effect at 80 g/ha against GLXMA in % (GLXMA): 0%
2 | COC(=O)C(OC)Oc1nn(-c2ccccc2F)c(-c2ccc(F)nc2)c1Br (racemic) [Example I-04, Methyl (2RS)-{[4-bromo-1-(2-fluorophenyl)-5-(6-fluoropyridin-3-yl)-1H-pyrazol-3-yl]oxy}(methoxy)acetate] | 100 | 0 | 100 | 90 | 100 | 90 | 90 | 90 | 90 | 80 | 80 | 80 | 100 | 80 | 80 | 80 | 90 | 90 | 90 | 80 | Pre-emergence effect at 80 g/ha against ECHCG in % (ECHCG [1]; 80 g/ha): 80%; Pre-emergence effect at 80 g/ha against AMARE in % (AMARE [2]): 80%; Pre-emergence effect at 80 g/ha against POLCO in % (POLCO [4]): 80%; pest or weed control at 80 g/ha (AVEFA): 80%; Pre-emergence effect at 80 g/ha against ALOMY in % (ALOMY [7]; 80 g/ha): 80%; pest or weed control at 80 g/ha (VERPE): 90%; pest or weed control at 80 g/ha (ECHCG [8]): 80%; pest or weed control at 80 g/ha (VIOTR): 80%; pest or weed control at 80 g/ha (PHBPU): 80%; Pre-emergence effect at 80 g/ha against SETVI in % (SETVI [9]; 80 g/ha): 80%; pest or weed control at 80 g/ha (LOLRI [11]): 80%; pest or weed control at 80 g/ha (MATIN [14]): 80%
3 | COC(=O)C(OC)Oc1nn(-c2ncccc2F)c(-c2ccc(F)nc2)c1Br (centres unmarked) [Example I-05] | 90 | 20 | 90 | 90 | 100 | 80 | 90 | 90 | 80 | 80 | 80 | 90 | 100 | 80 | 80 | 90 | 80 | 90 | 90 | 80 | pest or weed control at 320 g/ha (POLCO [3]): 80%; pest or weed control at 80 g/ha (AVEFA): 80%; pest or weed control at 80 g/ha (LOLRI [11]): 80%; Pre-emergence effect at 80 g/ha against GLXMA in % (GLXMA): 10%
